We go through one compound from ChEMBL document CHEMBL5321253, “Discovery of novel pyridinones as MGAT2 inhibitors for the treatment of metabolic disorders” (Bioorg Med Chem Lett, 2023).

For orientation: share remaining means what is left of the initial amount, in per cent. A lower share remaining goes with a greater loss.

A short description of data set [1]: in vitro. The following applies: mouse, liver microsomes. A general note: Liver microsomes are a subcellular fraction often used to study metabolism.
Data set [2] is described as follows: in vitro. Particulars: human, liver microsomes.

`Cc1ccc(-c2cc(-c3ccc(OCCCC(F)(F)F)cc3)[nH]c(=O)c2NC(=O)c2ccno2)cc1`: the values for the share remaining at 10 min in the data set “in vitro [1]” and in “in vitro [2]” were 27% and 64%, respectively.
